# Experiments:
# [1] = biological target: Scenedesmus HPPD (Seq ID: 2) (Tetradesmus obliquus, UniProt A0A383WMN4, N195D); assay: In vitro HPPD activity assay; type: biochemical
# Experimental: (§1) HPPD produces homogentisic acid and CO2 from 4-hydroxyphenylpyruvate (4-HPP) and O2. The activity assay for HPPD is based on the analysis of homogentisic acid by reversed phase HPLC.
# (§2) The assay mixture can contain 150 mM potassium phosphate buffer pH 7.0, 50 mM L-ascorbic acid, 100 μM Catalase (Sigma-Aldrich), 1 μM FeSO4 and 0.2 units of purified mutated HPPD enzyme in a total volume of 505 μl. 1 unit is defined as the amount of enzyme that is required to produce 1 nmol of HGA per minute at 20° C.
# (§3) After a preincubation of 30 min the reaction is started by adding 4-HPP to a final concentration of 0.05 mM. The reaction is allowed to proceed for 45 min at room temperature. The reaction is stopped by the addition of 50 μl of 4.5 M phosphoric acid. The sample is filtered using a […] pore size PVDF filtration device.
# (§4) 5 μl of the cleared sample is analyzed on an UPLC HSS T3 column (particle size 1.8 μm, dimensions 2.1×50 mm; Waters) by isocratic elution using 90% 20 mM NaH2PO4 pH 2.2, 10% methanol (v/v).
# (§5) HGA is detected electrochemically at 750 mV (mode: DC; polarity: positive) and quantified by integrating peak areas (Empower software; Waters).
# (§6) Inhibitors are dissolved in DMSO (dimethylsulfoxide) to a concentration of 0.5 mM. From this stock solution serial five-fold dilutions are prepared in DMSO, which are used in the assay. The respective inhibitor solution accounts for 1% of the assay volume. Thus, final inhibitor concentrations range from 5 μM to 320 pM, respectively. Activities are normalized by setting the uninhibited enzyme activity to 100%. IC50 values are calculated using non-linear regression.
# (§7) Using methods which are described in the above examples or well known in the art, purified, recombinant mutated HPPD enzymes are characterized with respect to their kinetic properties and sensitivity towards HPPD inhibiting herbicides. Apparent michaelis constants (Km) and maximal reaction velocities (Vmax) are calculated by non-linear regression with the software GraphPad Prism 5 (GraphPad Software, La Jolla, USA) using a substrate inhibition model. Apparent kcat values are calculated from Vmax assuming 100% purity of the enzyme preparation. Weighted means (by standard error) of Km and IC50 values are calculated from at least three independent experiments. The Cheng-Prusoff equation for competitive inhibition (Cheng, Y. C.; Prusoff, W. H. Biochem Pharmacol 1973, 22, 3099-3108) is used to calculate dissociation constants (Ki).
# (§8) Field performance of the HPPD enzyme, which is used as a herbicide tolerance trait may depend not only on its lack of sensitivity towards HPPD inhibiting herbicides but also on its activity. To assess the potential performance of a herbicide tolerance trait a tolerance index (TI) is calculated using the following formula: […]
# (§9) Easy comparison and ranking of each trait is enabled by normalizing tolerance indexes on Arabidopsis wild-type HPPD.
# [2] = biological target: Scenedesmus Short HPPD (Seq ID: 4) (Tetradesmus obliquus, UniProt A0A383WMN4, DEL398-433/N195D); assay: In vitro HPPD activity assay; type: biochemical
# Experimental: as §1, §2, §3, §4, §5, §6, §7, §8, §9
# [3] = biological target: T1, Arabidopsis HPPD (Seq ID: 42) (Arabidopsis thaliana, UniProt P93836); assay: In vitro HPPD activity assay (homogentisic acid by HPLC); type: biochemical
# T1 construct: His6; made in house; host or cells: E. coli BL21 (DE3)
# T1 sequence (P93836 1-445): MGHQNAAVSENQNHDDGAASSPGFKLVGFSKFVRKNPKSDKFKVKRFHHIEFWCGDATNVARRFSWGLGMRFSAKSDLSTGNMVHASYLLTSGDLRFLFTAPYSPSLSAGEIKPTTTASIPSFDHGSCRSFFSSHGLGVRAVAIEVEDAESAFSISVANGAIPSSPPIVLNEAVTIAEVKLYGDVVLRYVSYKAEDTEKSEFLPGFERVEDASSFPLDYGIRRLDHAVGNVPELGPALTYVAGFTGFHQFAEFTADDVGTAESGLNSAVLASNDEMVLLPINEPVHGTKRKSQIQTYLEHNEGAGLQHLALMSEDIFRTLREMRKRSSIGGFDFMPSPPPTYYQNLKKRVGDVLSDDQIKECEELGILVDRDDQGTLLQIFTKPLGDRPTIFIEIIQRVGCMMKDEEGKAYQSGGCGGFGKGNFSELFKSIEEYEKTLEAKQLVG
# Experimental: as §1, §2, §3, §4, §5
# as §6, with “Thus, final inhibitor concentrations range from 5 μM to 320 pM, respectively.” left out
# as §7, with “Apparent kcat values are calculated from Vmax assuming 100% purity of the enzyme preparation.” left out, “experiments.” for “experiments. The Cheng-Prusoff equation for competitive inhibition (Cheng, Y. C.; Prusoff, W. H. Biochem Pharmacol 1973, 22, 3099-3108) is used to calculate dissociation constants (Ki).”
# as §8, §9
# [4] = test system: transgenic Arabidopsis plants (T2) SoHPPD Q317H (short); assay: Greenhouse spray test, injury evaluation; type: in vivo, Arabidopsis thaliana; conditions: 14 DAT
# Experimental: (§10) Non-transgenic control plants were treated in parallel and pictures taken 14 days after treatment.
# (§11) For post emergence treatment, the test plants are first grown to a height of 3 to 15 cm, depending on the plant habit, and only then treated with the herbicides. For this purpose, the test plants are either sown directly and grown in the same containers, or they are first grown separately and transplanted into the test containers a few days prior to treatment.
# (§12) Additionally, T1 and T2 transgenic Arabidopsis plants can be tested for improved tolerance to HPPD-inhibiting herbicides in greenhouse studies. Herbicide injury scoring is done 2-3 weeks after treatment and is rated on a scale of 0 to 100%, 0% being no injury and 100% being complete death.
# (§13) Transgenic T2 Arabidopsis plants were sprayed with a range of doses from 1.56-25 g/ha of different HPPD-inhibiting herbicides and injury evaluations were taken two weeks after treatment (FIG. 4). As depicted in Table 8, control plants were severely injured by all doses of herbicides applied, with at least 58% of leaf material being damaged at the lowest application rate and 100% leaf damage at the second application rate.
# [5] = test system: transgenic Arabidopsis plants (T2) SoHPPD I419V (short); assay: Greenhouse spray test, injury evaluation; type: in vivo, Arabidopsis thaliana; conditions: 14 DAT
# Experimental: as §10, §11, §12, §13
# [6] = test system: WT (non-transgenic control) Arabidopsis plants; assay: Greenhouse spray test, injury evaluation; type: in vivo, Arabidopsis thaliana; conditions: 14 DAT
# Experimental: as §10, §11, §12, §13
# [7] = test system: transgenic Arabidopsis plants (T2) SoHPPD F363I (short); assay: Greenhouse spray test, injury evaluation; type: in vivo, Arabidopsis thaliana; conditions: for Injury: 14 DAT; for average damage: highest application rate, average of events
# Experimental: as §10, §11, §12, §13
# [8] = apparent michaelis constant, substrate inhibition model, read-out: Km (4-HPP)
# [9] = apparent, from Vmax assuming 100% purity
# Sequence of Scenedesmus HPPD (Seq ID: 2) (A0A383WMN4 entry or part of it N195D): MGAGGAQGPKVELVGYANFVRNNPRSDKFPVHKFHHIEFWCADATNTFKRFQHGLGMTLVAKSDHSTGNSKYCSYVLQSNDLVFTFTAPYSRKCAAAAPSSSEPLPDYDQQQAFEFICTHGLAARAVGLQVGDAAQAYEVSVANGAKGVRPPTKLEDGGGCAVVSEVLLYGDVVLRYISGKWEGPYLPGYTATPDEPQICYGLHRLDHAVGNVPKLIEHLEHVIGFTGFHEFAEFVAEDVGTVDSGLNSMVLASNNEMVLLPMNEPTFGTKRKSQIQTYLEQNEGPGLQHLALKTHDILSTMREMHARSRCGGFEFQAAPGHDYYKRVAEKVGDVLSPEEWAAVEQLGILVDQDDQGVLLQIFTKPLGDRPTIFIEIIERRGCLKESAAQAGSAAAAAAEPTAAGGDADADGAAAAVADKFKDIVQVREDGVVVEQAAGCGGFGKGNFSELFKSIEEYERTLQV
# Sequence of Scenedesmus Short HPPD (Seq ID: 4) (A0A383WMN4 entry or part of it N195D/DEL398-433): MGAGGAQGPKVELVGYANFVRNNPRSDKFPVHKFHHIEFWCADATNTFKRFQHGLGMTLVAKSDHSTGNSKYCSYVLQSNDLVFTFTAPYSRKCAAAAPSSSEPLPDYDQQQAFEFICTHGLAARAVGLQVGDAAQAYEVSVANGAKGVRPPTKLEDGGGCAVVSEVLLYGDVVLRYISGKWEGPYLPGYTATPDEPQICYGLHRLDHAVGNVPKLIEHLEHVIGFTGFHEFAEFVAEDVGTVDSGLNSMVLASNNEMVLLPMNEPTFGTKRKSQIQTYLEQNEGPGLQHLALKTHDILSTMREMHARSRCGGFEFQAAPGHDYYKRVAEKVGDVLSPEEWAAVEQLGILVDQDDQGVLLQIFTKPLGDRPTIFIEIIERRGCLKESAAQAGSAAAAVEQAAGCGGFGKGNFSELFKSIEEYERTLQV
SMILES,"Injury ([4]; Event B, 1.56 g ai/ha) [%]","Injury ([4]; Event B, 6.25 g ai/ha) [%]","Injury ([4]; Event B, 25 g ai/ha) [%]","Injury ([4]; Event C, 1.56 g ai/ha) [%]","Injury ([4]; Event C, 6.25 g ai/ha) [%]","Injury ([4]; Event C, 25 g ai/ha) [%]","Injury ([5]; Event G, 1.56 g ai/ha) [%]","Injury ([5]; Event G, 6.25 g ai/ha) [%]","Injury ([5]; Event G, 25 g ai/ha) [%]","Injury ([5]; Event H, 1.56 g ai/ha) [%]","Injury ([5]; Event H, 6.25 g ai/ha) [%]","Injury ([5]; Event H, 25 g ai/ha) [%]",Injury ([6]; 1.56 g ai/ha) [%],Injury ([6]; 6.25 g ai/ha) [%],Injury ([6]; 25 g ai/ha) [%],"Injury ([7]; Event B, 1.56 g ai/ha) [%]","Injury ([7]; Event B, 6.25 g ai/ha) [%]","Injury ([7]; Event B, 25 g ai/ha) [%]","Injury ([7]; Event C, 1.56 g ai/ha) [%]","Injury ([7]; Event C, 6.25 g ai/ha) [%]",also measured
"CN(c1c(Cl)ccc(C2=C(O)c3ncccc3C(C)(C)S2(=O)=O)c1Cl)S(C)(=O)=O [Inhibitor 3, N-[2,6-dichloro-3-(8-hydroxy-5,5-dimethyl-6,6-dioxo-thiopyrano[4,3-b]pyridin-7-yl)phenyl]-N-methyl-methanesulfonamide]",–,–,–,–,–,–,–,–,–,–,–,–,–,–,–,–,–,–,–,–,Ki [1]: 110 nM; Ki [2]: 580 nM
"O=C(O)C(=O)Cc1ccc(O)cc1 [Inhibitor 4-HPP, 4-hydroxyphenylpyruvate]",–,–,–,–,–,–,–,–,–,–,–,–,–,–,–,–,–,–,–,–,"Km [1, 8]: 160 µM; kcat [1, 9]: 6 s⁻¹; Km [2, 8]: 89 µM; kcat [2, 9]: 17 s⁻¹; Km [3, 8]: 13 µM; kcat [3, 9]: 12.9 s⁻¹"
"CSc1c(C(F)(F)F)ccc(C(=O)Nc2nnnn2C)c1Cl [Inhibitor 11, 2-chloro-3-methylsulfanyl-N-(1-methyltetrazol-5-yl)-4-(trifluoromethyl)benzamide]",40,99,100,15,79,100,58,83,100,43,100,100,100,100,100,0,0,15,8,0,"Injury ([7]; Event C, 25 g ai/ha): 5%; average damage [7]: 10%"
"CSc1c(Cl)cc(F)c(C(=O)Nc2nnnn2C)c1Cl [Inhibitor 7, 2,4-dichloro-6-fluoro-3-methylsulfanyl-N-(1-methyltetrazol-5-yl)benzamide]",0,18,78,0,8,73,0,28,40,5,53,93,88,100,100,0,5,0,0,0,"Injury ([7]; Event C, 25 g ai/ha): 0%; average damage [7]: no damage"
